Broadly, the IC50 is the concentration needed to halve the response being measured. A low value points to greater potency. Broadly, the DC50 is the concentration giving 50% degradation.

Assay [1] has as its system NCI-H3122 (EML4-ALK, V1) cells. In words: Growth inhibition IC50 in lung cancer H3122 cells (Cell Titer Blue / Cell Titer Glo). The conditions noted are these: Homo sapiens, NCI-H3122, H3122 cells, CTB (Cell Titer Blue). For orientation: Resazurin is reduced to fluorescent resorufin, in cell work by metabolically active cells.
Procedure: SR (NPM-ALK) and NCI-H2228 (EML4-ALK, V3) cells were purchased from ATCC. […] All Cells were cultured in RPMI1640 medium with 10% FBS and Penicillin-Streptomycin in 37° C. incubator with 5% CO2.
Cells were seeded at specific density in 96 well plates one day before treatment. […] Viable cells were measured via CCK8 reagent and IC50s were calculated via Prism Graphad. Experiments were repeated at least three times.
Assay [2] deals with T1, ALK protein in SR (NPM-ALK) cells (Homo sapiens, UniProt Q9UM73).
T1 construct: NPM (nucleophosmin, NPM1, P06748) fusion partner; host or cells: SR (ALCL) cells; the other entry of the earlier key: NPM1 (P06748, Nucleophosmin)
T1 sequence (Q9UM73 with tags, fused parts or gaps): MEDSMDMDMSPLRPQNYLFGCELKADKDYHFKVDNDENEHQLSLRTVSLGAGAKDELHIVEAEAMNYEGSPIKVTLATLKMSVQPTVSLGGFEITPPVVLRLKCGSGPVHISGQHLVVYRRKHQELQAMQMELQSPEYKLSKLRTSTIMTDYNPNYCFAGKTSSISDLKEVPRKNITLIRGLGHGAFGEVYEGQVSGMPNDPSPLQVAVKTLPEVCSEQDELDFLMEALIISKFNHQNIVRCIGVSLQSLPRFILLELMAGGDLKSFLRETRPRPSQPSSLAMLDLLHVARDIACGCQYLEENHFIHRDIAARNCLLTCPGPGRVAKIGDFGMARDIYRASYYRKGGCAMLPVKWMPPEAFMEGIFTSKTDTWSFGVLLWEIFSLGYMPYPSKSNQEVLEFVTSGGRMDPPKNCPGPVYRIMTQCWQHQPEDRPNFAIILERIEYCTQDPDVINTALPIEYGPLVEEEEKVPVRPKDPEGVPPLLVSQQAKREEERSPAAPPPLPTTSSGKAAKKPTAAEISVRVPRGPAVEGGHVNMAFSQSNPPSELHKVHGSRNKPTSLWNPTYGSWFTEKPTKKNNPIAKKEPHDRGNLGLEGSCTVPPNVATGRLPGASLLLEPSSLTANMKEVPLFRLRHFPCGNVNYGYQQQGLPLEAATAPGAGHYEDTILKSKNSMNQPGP
In words: Western blot of ALK protein level (degradation, DC50), ALK phosphorylation and downstream signaling in SR cells. The conditions noted are these: for DC50: ALK protein degradation in SR cells. It is filed as cell-based. (In western blotting, separated proteins are transferred to a membrane and probed.)

Assay [3] concerns the target T2, ALK protein in H3122 (EML4-ALK) cells (Homo sapiens, UniProt Q9UM73).
T2 construct: EML4 (Echinoderm microtubule-associated protein-like 4, Q9HC35) fusion partner, variant 1; host or cells: NCI-H3122 lung adenocarcinoma cells; the other entry of the earlier key: EML4 (Q9HC35, Echinoderm microtubule-associated protein-like 4)
The assay is described as follows: Western blot of ALK protein level (degradation, DC50), ALK phosphorylation and downstream signaling in H3122 cells. It is filed as cell-based. Conditions: ALK protein degradation in H3122 cells.

The next assay deals with SR (NPM-ALK) cells. The assay is described as follows: Growth inhibition IC50 in ALCL SR cells (CCK8/WST, 72 hours). The conditions noted are these: 72 h, SR cells, WST; Brigatinib-based PROTAD molecules (Table 3). It is filed as cell-based.

T2 sequence (Q9UM73 with tags, fused parts or gaps): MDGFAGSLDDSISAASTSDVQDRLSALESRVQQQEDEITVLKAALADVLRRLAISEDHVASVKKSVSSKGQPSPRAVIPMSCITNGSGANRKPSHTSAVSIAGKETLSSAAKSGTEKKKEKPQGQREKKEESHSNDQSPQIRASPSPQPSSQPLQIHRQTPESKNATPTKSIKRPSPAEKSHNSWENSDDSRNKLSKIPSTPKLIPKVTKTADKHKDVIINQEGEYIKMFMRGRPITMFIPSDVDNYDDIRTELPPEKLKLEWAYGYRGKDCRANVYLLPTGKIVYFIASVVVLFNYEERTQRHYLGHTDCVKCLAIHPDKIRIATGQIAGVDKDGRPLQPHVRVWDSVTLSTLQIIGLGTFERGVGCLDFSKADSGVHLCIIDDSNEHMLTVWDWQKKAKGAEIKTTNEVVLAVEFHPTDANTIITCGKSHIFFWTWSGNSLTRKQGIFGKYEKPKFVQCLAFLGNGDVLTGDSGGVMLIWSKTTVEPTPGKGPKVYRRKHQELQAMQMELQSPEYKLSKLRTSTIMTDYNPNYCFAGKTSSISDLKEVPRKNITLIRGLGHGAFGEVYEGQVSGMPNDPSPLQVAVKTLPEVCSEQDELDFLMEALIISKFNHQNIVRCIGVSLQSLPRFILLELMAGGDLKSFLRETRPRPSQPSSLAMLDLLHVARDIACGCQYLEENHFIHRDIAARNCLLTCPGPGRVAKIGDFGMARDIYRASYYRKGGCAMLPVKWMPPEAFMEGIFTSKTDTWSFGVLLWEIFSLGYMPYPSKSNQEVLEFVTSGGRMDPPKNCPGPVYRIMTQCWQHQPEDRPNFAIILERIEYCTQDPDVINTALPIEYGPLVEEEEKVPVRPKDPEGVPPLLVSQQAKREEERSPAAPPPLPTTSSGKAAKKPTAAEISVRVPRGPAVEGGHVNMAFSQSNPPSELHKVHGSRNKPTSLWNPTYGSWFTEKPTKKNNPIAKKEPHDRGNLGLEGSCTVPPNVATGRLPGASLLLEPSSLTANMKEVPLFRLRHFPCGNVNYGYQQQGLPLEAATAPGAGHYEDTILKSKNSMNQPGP

Take `Cc1cc(Nc2ncc(Cl)c(Nc3ccccc3S(=O)(=O)C(C)C)n2)c(OC(C)C)cc1C1CCN(C(=O)CCCCCCCCCC(=O)N[C@H](C(=O)N2C[C@H](O)C[C@H]2C(=O)NCc2ccc(-c3scnc3C)cc2)C(C)(C)C)CC1` [SIAIS074026, (2S,4R)-1-((S)-2-(11-(4-(4-((5-chloro-4-((2-(isopropylsulfonyl)phenyl)amino)pyrimidin-2-yl)amino)-5-isopropoxy-2-methylphenyl)piperidin-1-yl)-11-oxoundecanamido)-3,3-dimethylbutanoyl)-4-hydroxy-N-(4-(4-methylthiazol-5-yl)benzyl)pyrrolidine-2-carboxamide]: in assay [1], inhibition was half-maximal at 2560 nM (IC50).
In assay [1], `Cc1cc(Nc2ncc(Cl)c(Nc3ccccc3S(=O)(=O)C(C)C)n2)c(OC(C)C)cc1C1CCN(C(=O)CCNc2cccc3c2C(=O)N(C2CCC(=O)NC2=O)C3=O)CC1` (stereo not drawn) [SIAIS151034, 4-((3-(4-(4-((5-chloro-4-((2-(isopropylsulfonyl)phenyl)amino)pyrimidin-2-yl)amino)-5-isopropoxy-2-methylphenyl)piperidin-1-yl)-3-oxopropyl)amino)-2-(2,6-dioxopiperidin-3-yl)isoindoline-1,3-dione] gave an IC50 of 14 nM.
Regarding `COc1cc(N2CCC(NC(=O)CCCCC(=O)N[C@H](C(=O)N3C[C@H](O)C[C@H]3C(=O)NCc3ccc(-c4scnc4C)cc3)C(C)(C)C)CC2)ccc1Nc1ncc(Cl)c(Nc2ccccc2P(C)(C)=O)n1` [SIAIS164145, N1-(1-(4-((5-chloro-4-((2-(dimethylphosphoryl)phenyl)amino)pyrimidin-2-yl)amino)-3-methoxyphenyl)piperidin-4-yl)-N6-((S)-1-((2S,4R)-4-hydroxy-2-((4-(4-methylthiazol-5-yl)benzyl)carbamoyl)pyrrolidin-1-yl)-3,3-dimethyl-1-oxobutan-2-yl)adipamide], the figures for the half-maximal degradation concentration (DC50) in assay [2] and in assay [3] were 1 to 10 nM and 50 to 100 nM, respectively. Also, the IC50 in the assay with SR (NPM-ALK) cells was determined as 10.3 ± 6.3 nM.
The corresponding values for `COc1cc(N2CCC(NC(=O)CCCCCC(=O)N[C@H](C(=O)N3C[C@H](O)C[C@H]3C(=O)NCc3ccc(-c4scnc4C)cc3)C(C)(C)C)CC2)ccc1Nc1ncc(Cl)c(Nc2ccccc2P(C)(C)=O)n1` [SIAIS164146, N1-(1-(4-((5-chloro-4-((2-(dimethylphosphoryl)phenyl)amino)pyrimidin-2-yl)amino)-3-methoxyphenyl)piperidin-4-yl)-N7-((S)-1-((2S,4R)-4-hydroxy-2-((4-(4-methylthiazol-5-yl)benzyl)carbamoyl)pyrrolidin-1-yl)-3,3-dimethyl-1-oxobutan-2-yl)heptanediamide] are 1 to 10 nM, 0.1 to 10 nM and 3.6 ± 2.1 nM.
For `COc1cc(N2CCC(N3CCN(C(=O)CCC(=O)NCCNc4cccc5c4C(=O)N(C4CCC(=O)NC4=O)C5=O)CC3)CC2)ccc1Nc1ncc(Cl)c(Nc2ccccc2P(C)(C)=O)n1` (stereo not drawn) [SIAIS164152, 4-(4-(1-(4-((5-chloro-4-((2-(dimethylphosphoryl)phenyl)amino)pyrimidin-2-yl)amino)-3-methoxyphenyl)piperidin-4-yl)piperazin-1-yl)-N-(2-((2-(2,6-dioxopiperidin-3-yl)-1,3-dioxoisoindolin-4-yl)amino)ethyl)-4-oxobutanamide] the same measures were 0.5 to 10 nM, 10 to 50 nM and 7.9 ± 3.5 nM.
As to `COc1cc(N2CCC(N3CCN(C(=O)CCCc4cn(CCCC(=O)N[C@H](C(=O)N5C[C@H](O)C[C@H]5C(=O)NCc5ccc(-c6scnc6C)cc5)C(C)(C)C)nn4)CC3)CC2)ccc1Nc1ncc(Cl)c(Nc2ccccc2P(C)(C)=O)n1` [SIAIS164153, (2S,4R)-1-((S)-2-(4-(4-(4-(4-(1-(4-((5-chloro-4-((2-(dimethylphosphoryl)phenyl)amino)pyrimidin-2-yl)amino)-3-methoxyphenyl)piperidin-4-yl)piperazin-1-yl)-4-oxobutyl)-1H-1,2,3-triazol-1-yl)butanamido)-3,3-dimethylbutanoyl)-4-hydroxy-N-(4-(4-methylthiazol-5-yl)benzyl)pyrrolidine-2-carboxamide], the results for the DC50 in assay [2] and in assay [3] were 100 to 500 nM and 1 to 10 nM, respectively. The “concentration at which ALK proteins were degraded” value in assay [2] (SR cells, western blot) worked out at 1 nM. In the assay with SR (NPM-ALK) cells, the IC50 was 55.9 ± 19.9 nM.
As for `COc1cc(N2CCN(C(=O)CNc3cccc4c3C(=O)N(C3CCC(=O)NC3=O)C4=O)CC2)ccc1Nc1ncc(Cl)c(Nc2ccccc2P(C)(C)=O)n1` (stereo not drawn) [SIAIS1197055, 4-((2-(4-(4-((5-chloro-4-((2-(dimethylphosphoryl)phenyl)amino)pyrimidin-2-yl)amino)-3-methoxyphenyl)piperazin-1-yl)-2-oxoethyl)amino)-2-(2,6-dioxopiperidin-3-yl)isoindoline-1,3-dione], the DC50 in assay [2] lay in the range of 1 to 10 nM; in assay [3], 1 to 50 nM. For the same compound, the IC50 in the assay with SR (NPM-ALK) cells was around 1 nM.
For `COc1cc(N2CCN(C(=O)CCCCCCNc3cccc4c3C(=O)N(C3CCC(=O)NC3=O)C4=O)CC2)ccc1Nc1ncc(Cl)c(Nc2ccccc2P(C)(C)=O)n1` (stereo not drawn) [SIAIS1197077, 4-((7-(4-(4-((5-chloro-4-((2-(dimethylphosphoryl)phenyl)amino)pyrimidin-2-yl)amino)-3-methoxyphenyl)piperazin-1-yl)-7-oxoheptyl)amino)-2-(2,6-dioxopiperidin-3-yl)isoindoline-1,3-dione] the same measures were 0.1 to 0.5 nM, 50 to 500 nM and 7.9 ± 4.9 nM.
On to `COc1cc(N2CCN(C(=O)CCCCCCC(=O)N[C@H](C(=O)N3C[C@H](O)C[C@H]3C(=O)NCc3ccc(-c4scnc4C)cc3)C(C)(C)C)CC2)ccc1Nc1ncc(Cl)c(Nc2ccccc2P(C)(C)=O)n1` [SIAIS1197153, (2S,4R)-1-((S)-2-(8-(4-(4-((5-chloro-4-((2-(dimethylphosphoryl)phenyl)amino)pyrimidin-2-yl)amino)-3-methoxyphenyl)piperazin-1-yl)-8-oxooctanamido)-3,3-dimethylbutanoyl)-4-hydroxy-N-(4-(4-methylthiazol-5-yl)benzyl)pyrrolidine-2-carboxamide], for which the DC50 in assay [2] and in assay [3] was 1 to 50 nM each time. This compound also yielded an IC50 in the assay with SR (NPM-ALK) cells of 4.6 ± 1.9 nM.
With `COc1cc(N2CCN(C(=O)CCCCCCCC(=O)N[C@H](C(=O)N3C[C@H](O)C[C@H]3C(=O)NCc3ccc(-c4scnc4C)cc3)C(C)(C)C)CC2)ccc1Nc1ncc(Cl)c(Nc2ccccc2P(C)(C)=O)n1` [SIAIS1197155, (2S,4R)-1-((S)-2-(9-(4-(4-((5-chloro-4-((2-(dimethylphosphoryl)phenyl)amino)pyrimidin-2-yl)amino)-3-methoxyphenyl)piperazin-1-yl)-9-oxononanamido)-3,3-dimethylbutanoyl)-4-hydroxy-N-(4-(4-methylthiazol-5-yl)benzyl)pyrrolidine-2-carboxamide], the DC50 in assay [2] was 1 to 10 nM; in assay [3] it was 1 to 50 nM. In the assay on SR (NPM-ALK) cells, this compound had an IC50 of 3.4 ± 0.5 nM.
The corresponding values for `COc1cc(N2CCN(C(=O)CCCCCCCCC(=O)N[C@H](C(=O)N3C[C@H](O)C[C@H]3C(=O)NCc3ccc(-c4scnc4C)cc3)C(C)(C)C)CC2)ccc1Nc1ncc(Cl)c(Nc2ccccc2P(C)(C)=O)n1` [SIAIS1197157, (2S,4R)-1-((S)-2-(10-(4-(4-((5-chloro-4-((2-(dimethylphosphoryl)phenyl)amino)pyrimidin-2-yl)amino)-3-methoxyphenyl)piperazin-1-yl)-10-oxodecanamido)-3,3-dimethylbutanoyl)-4-hydroxy-N-(4-(4-methylthiazol-5-yl)benzyl)pyrrolidine-2-carboxamide] are 1 to 10 nM, 1 to 50 nM and 3.1 ± 1.3 nM.

The values above are taken from patent publication US11771709B2, “ALK protein degradation agent and anti-tumor application thereof” (ShanghaiTech University, priority 2017, dated 2023).
